Experimental data taken from patent US20110269790A1, “NOVEL THIENOPYRIDINES AS PHARMACOLOGICALLY ACTIVE AGENTS” (priority 2009, published 2011).

Key:
[1] = test system: Wistar rats; assay: Antidiabetic activity by starch loaded model; assay type: in vivo, rat; settings: test compounds 100 mg/kg, Acarbose 10 mg/kg oral
Description: Experimental Animals—Wistar rats of either sex were used for the present study. Animals selected for use in the study were of uniform age and body weight. A minimum of 40 rats, from which eventually 20 rats were selected. Their body weights were in the range of 150-180 gm. The health status of the animals was ascertained by a veterinary surgeon. […] Animals were acclimatized for at least two weeks prior to start of the study. The animals were provided with pellet diet manufactured by NIN, HYDERABAD, India and drinking water adlibitum.
Compound Preparation The required quantity of the synthetic compounds were weighed and made suspension with gum acacia (2%). The test compounds were administered to all rats by per oral route. Acarbose suspension was also prepared in gum acasia suspension and given by oral route.
Antidiabetic activity by Starch model: The method of Rao et al., 2009;Tiwari et al was employed. Animals were fasted over night (12 hrs). Basal blood glucose levels were estimated for all the animals prior to dosing in test and standard groups. This was designated as “0” min reading. […] After test compounds administration animals in all three groups received Starch aqueous solution (2 gm/kg body weight). Blood glucose levels were monitored at 30, 60, 90 and 120 min after the administration of Starch in all the three groups. The percentage of increase in, blood glucose levels was calculated with respect to the control group at each time point.

[2] = test system: mice; assay: Adenosine mediated bronchoconstriction and lung inflammation in an allergic mouse model; assay type: in vivo; set-up: Total count: unit not given here; settings: BAL fluid cells; 100 mg/kg oral
Procedure: Thienopyridines were proven as potent cytotoxic and anti-inflammatory agents in the previous experimental results. In cytotoxic MTT assay, activity of these molecules may be due to the involvement of adenosine receptors. Further, to find the bronchodilatory activity of these moieties and to find the involvement of adenosine receptors in their action, non-invasive and invasive adenosine mediated bronchoconstriction and lung inflammation in an allergic mouse model was performed.
Male mice, 6-8 weeks of age, free of specific pathogens were obtained from National Institute of Nutrition. The animals were maintained on a ragweed-free diet. All experimental protocols used in this study were under a protocol approved by animal ethical committee. Sensitization was performed according to the modified procedure described by Fan et al, 2002. Mice were sensitized on days 1 and 6 with i.p. injections of ragweed allergen (200 μg/200 μl of water for injection). Non-sensitized control animals received only water for injection with the same volumes. Ten days after sensitization, the mice were placed in plexiglas chamber and challenged with 0.5% ragweed or with 0.9% saline as a control for twenty minutes both in the morning and evening for three days. Then mice were divided into different groups consisting of six animals each. The groups including a control without sensitization; a sensitized group and a standard group along with groups of the test molecules were separated. Twenty-four hours after last challenge with ragweed, the mice were given an oral dose of test molecules and theophylline (100 mg/kg body weight) as acacia suspension. Two hours after administration of the oral dose, the mice were challenged with adenosine solution (24 mg/ml). The variation in respiration was recorded after anaesthetizing them with pentobarbitone sodium (0.1 ml 200 mg/ml ip) using kymograph. Then, mice were sacrificed and trachea was cannulated to collect the bronchoalveolar lavage fluid. This was performed by pumping 1 ml phosphate buffered saline into lungs through tracheal cannula and collecting the sample. Analysis of BAL fluid was performed to get the cellular differentials. The BAL fluid was centrifugated at 1500 rpm for six minutes at room temparature. After removing the supernatant, BAL cells were resuspended in 1 ml of phosphate buffered saline. Total cells were then counted manually in a hemocytometer chamber. A differential count of at least 300 cells was made according to the standard morphologic criteria and results were mentioned in table.

[3] = test system: Wistar rats; assay: Carrageenan induced paw edema model; assay type: in vivo, rat; settings: Rattus norvegicus, po, 3 h
Procedure: Male Albino Wistar rats of 150-180 grams were used for the experiments.
Anti-inflammatory activity of test compounds was evaluated in Wistar rats employing the method of Winter et al (1963) and Diwan et al (1989). Male Wistar rats were used for the study. […] The different test compounds were administered to the animals in the test group at the dose of 100 mg/kg, by oral route. Animals in the standard group received Indomethacin at the dose of 10 mg/kg, by oral route. All test and standard compounds were administered as 1% gum acacia suspension. Rats in the control group received the vehicle solution without drugs. One hour after test drugs administration, rats in all the groups were challenged with 0.1 ml of 1% Carrageenan in the sub plantar region of right hind paw. A zero hour paw volume was measured for all the rats using digital plethysmometer (Ugo Basile, Italy) before the administration of carrageenan for all groups. Paw volumes were again measured 3 hrs after the challenge of Carrageenan. The percent inhibition of paw volume for each rat in treated groups was calculated by comparing with mean paw volume of control group and expressed as mean (±SE) percent inhibition of paw volume for each test. In a preliminary study the compounds that have shown good activity were evaluated for dose response study by using above procedure.

[4] = test system: crude intestinal α-glucosidase; assay: In-vitro mammalian (rat intestinal) α-glucosidase inhibition assay; assay type: biochemical; settings: highest concentration 5 mg/ml
Description: (§1) Chemicals: α-Glucosidase [(EC 3.2.1.20) Type I: from bakers yeast], rat intestinal acetone powder (as a source of crude intestinal α-glucosidase), α-amylase [EC 3.2.1.1) Type VI B: from porcine pancreas], p-nitrophenyl α-D-glucopyranoside, 3,5-dinitro salicylic acid, soluble potato starch and 1-deoxyrojirimycine, were purchased from Sigma Chemical Co., St Louis, Mo., USA. Other chemicals of analytical grade were procured from indigenous manufacturers.
(§2) In-vitro a-Glucosidase Inhibition Assay: Yeast and intestinal a-glucosidase inhibitory activities were determined as per reported methods (Babu et al., 2004; Mc Dougall et al., 2005). Rat intestinal acetone powder in normal saline (100% w/v) was sonicated properly and the supernatant was used as a source of crude intestinal a-glucosidase after centrifugation. In brief, 20 μl, of test samples (100 mg/ml DMSO solution) were reconstituted in 100 μl of 100 mM-Phosphate buffer (pH 6.8) in a 96-well microplate and incubated with 50 μl yeast a-glucosidase (0.76 μ/ml in same buffer) or crude intestinal a-glucosidase for 5 min before 50-μl substrate (5 mM, […] prepared in same buffer) was added. Release of p-nitrophenyol was measured at 405 nm spectrophotometrically (Spectra Mas Plus 384, Molecular Device corporation, Sunnyvale, Calif., USA) 5 min after incubation with substrate, individual blank for test samples were prepared to correct background absorbance where the substrate was replaced with 50 μl of buffer. The control sample contained 20 μl DMSO in place of test samples. The percentage of enzyme inhibition was calculated as (A−B/A)×100 where A is represents the absorbance of the control without test samples, and B represents the absorbance in the presence of test samples. […] The IC50 values were calculated by applying logarithmic regression analysis from the mean inhibitory values.

[5] = target: T1, porcine pancreatic α-amylase (Sus scrofa, UniProt P00690); assay: α-Amylase inhibition assay; assay type: biochemical; settings: 10 mg per ml; a/b marks the respective control (Control-1 2.147, Control-2 3.429)
T1 construct: α-amylase [EC 3.2.1.1) Type VI B: from porcine pancreas]; purchased Sigma Chemical Co., St Louis, Mo., USA; host or cells: porcine pancreas (natural source)
T1 sequence (P00690 16-511): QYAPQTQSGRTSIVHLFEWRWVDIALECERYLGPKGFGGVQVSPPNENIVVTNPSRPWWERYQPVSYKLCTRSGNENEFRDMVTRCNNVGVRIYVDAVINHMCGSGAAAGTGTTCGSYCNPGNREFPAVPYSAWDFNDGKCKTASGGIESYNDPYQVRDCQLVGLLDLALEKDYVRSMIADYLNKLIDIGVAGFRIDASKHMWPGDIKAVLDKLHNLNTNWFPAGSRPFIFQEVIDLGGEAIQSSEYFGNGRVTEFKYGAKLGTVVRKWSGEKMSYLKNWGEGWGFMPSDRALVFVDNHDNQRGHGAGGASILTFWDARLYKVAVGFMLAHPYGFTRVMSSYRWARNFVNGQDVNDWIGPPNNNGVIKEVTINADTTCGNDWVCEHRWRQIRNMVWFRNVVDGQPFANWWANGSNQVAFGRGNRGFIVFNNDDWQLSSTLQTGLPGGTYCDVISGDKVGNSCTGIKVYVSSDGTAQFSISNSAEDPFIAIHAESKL
Description: as §1
a-Amylase Inhibition Assay: The assay method was adopted from Ali et al. (2006) and modified accordingly to suite microplate reading. In brief, 40 μL of test samples (10 mg/mL DMSO) were reconstituted in 160 μL of 20 mM phosphate buffer (pH 6.9) containing 6.7 mM sodium chloride in 2 mL Eppendorf tubes and incubated with 200 μL of porcine pancreatic α-amylase) (4 U/mL prepared in ice cold distilled water) for 5 min. The reaction was started by the addition of 400-μL soluble potato starch solution (0.5% w/v in 20 mM phosphate buffer, pH 6.9). Exactly 3 min after incubation, 400 μL DNS color reagent (1.0 g of 3,5-dinitrosalicylic acid, 30 g of sodium potassium tartrate and 20 mL of 2 N NaOH to a final volume of 100 mL in distilled water) was added. Closed tubes were placed in a water bath (85-90° C.) for 10 min to develop color and cooled thereafter. 50 μL of reaction mixtures was diluted with 175 μL of distilled water in a 96-well microplate. α-Amylase activity was determined by measuring the absorbance of the mixture at 540 nm spectrophotometrically as above. Individual blanks were prepared to correct for the background absorbance due to test samples. In this case DNS solution was added in tubes before addition of substrate. The percentage inhibition of enzyme activity was calculated as above. All the tests were run in duplicate in this assay.

[6] = target: T2, yeast α-glucosidase (Saccharomyces cerevisiae, UniProt P53341); assay: In-vitro yeast α-glucosidase inhibition assay; assay type: biochemical, bakers yeast
T2 construct: α-Glucosidase [(EC 3.2.1.20) Type I: from bakers yeast]
Description: as §1, §2

T2 sequence (P53341 whole entry): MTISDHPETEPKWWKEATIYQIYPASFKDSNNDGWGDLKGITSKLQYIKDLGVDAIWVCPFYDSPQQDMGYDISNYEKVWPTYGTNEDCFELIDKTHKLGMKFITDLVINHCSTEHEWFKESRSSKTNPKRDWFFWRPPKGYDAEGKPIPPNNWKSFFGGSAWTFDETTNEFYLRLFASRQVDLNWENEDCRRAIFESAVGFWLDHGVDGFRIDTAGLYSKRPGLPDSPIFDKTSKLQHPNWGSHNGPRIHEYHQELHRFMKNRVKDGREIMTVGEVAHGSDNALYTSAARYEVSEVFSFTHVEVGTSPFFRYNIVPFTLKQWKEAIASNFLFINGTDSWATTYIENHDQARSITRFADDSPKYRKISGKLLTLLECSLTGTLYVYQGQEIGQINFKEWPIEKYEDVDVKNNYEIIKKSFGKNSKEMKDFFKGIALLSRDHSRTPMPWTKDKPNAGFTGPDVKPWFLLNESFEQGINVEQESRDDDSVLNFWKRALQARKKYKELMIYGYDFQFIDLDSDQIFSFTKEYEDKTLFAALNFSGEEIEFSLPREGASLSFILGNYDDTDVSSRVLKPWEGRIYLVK

| Compound | % Increase in glucose, 30 min ([1]; 30 min after starch) | Blood glucose level, 30 min ([1]; 30 min after starch, in mg/dL (unit assumed)) | % Increase in glucose, 60 min ([1]; 60 min after starch) | Blood glucose level, 60 min ([1]; 60 min after starch, in mg/dL (unit assumed)) | % Increase in glucose, 90 min ([1]; 90 min after starch) | Blood glucose level, 90 min ([1]; 90 min after starch, in mg/dL (unit assumed)) | % Increase in glucose, 120 min ([1]; 120 min after starch) | Blood glucose level, 120 min ([1]; 120 min after starch, in mg/dL (unit assumed)) | Blood glucose level, 0 min ([1]; basal, prior to dosing, starch 2 gm/kg, in mg/dL (unit assumed)) | Differential count (%) Eosinophils [2] | Differential count (%) Lymphocytes [2] | Differential count (%) Monocytes [2] | Total count [2] | change in vivo at 100 mg/kg ([3]; read-out: % Increase in Paw Volume) | inhibition in vivo at 100 mg/kg ([3]; read-out: % Inhibition (paw volume)) | Mammalian α Glucosidase Inhibition (Mean ± S.E) [4] | Maltose released [5] | Yeast α-glucosidase enzyme inhibitory activity (in words) [6] |
| --- | --- | --- | --- | --- | --- | --- | --- | --- | --- | --- | --- | --- | --- | --- | --- | --- | --- | --- |
| C[C@H]1O[C@H](O[C@H]2[C@H](O)[C@@H](O)[C@@H](O[C@H]3[C@H](O)[C@@H](O)C(O)O[C@@H]3CO)O[C@@H]2CO)[C@H](O)[C@@H](O)[C@@H]1N[C@H]1C=C(CO)[C@@H](O)[C@H](O)[C@H]1O (stereo partly drawn) [Acarbose, reference compound] | 23.55% | 103.17 | 32.03% | 110.17 | 31.78% | 109.83 | 30.27% | 108.62 | 83.50 |  |  |  |  |  |  |  |  |  |
| Nc1c2c(nc3sc4c(c13)CCCCC4)CCCC2 [BN-19, 2,3,4,7,8,9,10,11-Octahydro-1H-cyclohepta[4,5]thieno[2,3-b]quinolin-12-Amine] |  |  |  |  |  |  |  |  |  | 10% | 80% | 10% | 11.5 | 90.4 ± 11.4% | 0% | 0.0 ± 0.0% | 3.282 mg/mL | moderate inhibitory activity |
